Values joined by “and” are separate entries in the source; they are usually repeats but may differ in a detail not shown here. Equal entries are not always repeated. Toxic doses and inconclusive results are not listed. No stated cut-off is given here; in the data, active means T/C of 150% or more; inactive means T/C below 125%.
Test system: L1210 leukemia ip in BDF1 mice, survival T/C
Test: NCI In Vivo Anticancer Drug Screen. Data for tumor model L1210 Leukemia (intraperitoneal) in B6D2F1 (BDF1) mice
Conditions: endpoint: mean survival time, higher = longer survival
Description: The antitumor activity of compounds was measured in mice bearing transplantable tumors. Survival or tumor size were measured and the results are expressed as the measurement made in the treated group (T) divided by the measurement made in the vehicle treated control group (C). The tumor model used in this assay is L1210 Leukemia (intraperitoneal) in B6D2F1 (BDF1) mice

[1] = dose: 100.0 mg/kg/injection, schedule: Q01DX009 (ip), vehicle: Klucel (hydroxypropylcellulose) (HPC)
[2] = dose: 100.0 mg/kg/injection, schedule: Q04DX003 (ip), vehicle: Klucel (hydroxypropylcellulose) (HPC)
[3] = dose: 200.0 mg/kg/injection, schedule: Q01DX009 (ip), vehicle: Klucel (hydroxypropylcellulose) (HPC)
[4] = dose: 200.0 mg/kg/injection, schedule: Q04DX003 (ip), vehicle: Klucel (hydroxypropylcellulose) (HPC)
[5] = dose: 400.0 mg/kg/injection, schedule: Q01DX009 (ip), vehicle: Klucel (hydroxypropylcellulose) (HPC)
[6] = dose: 400.0 mg/kg/injection, schedule: Q04DX003 (ip), vehicle: Klucel (hydroxypropylcellulose) (HPC)
[7] = dose: 100.0 mg/kg/injection, schedule: Q01DX001 (ip), vehicle: saline with Tween-80
[8] = dose: 200.0 mg/kg/injection, schedule: Q01DX001 (ip), vehicle: saline with Tween-80
[9] = dose: 400.0 mg/kg/injection, schedule: Q01DX001 (ip), vehicle: saline with Tween-80
[10] = dose: 100.0 mg/kg/injection, schedule: Q01DX009 (ip), vehicle: saline with Tween-80
[11] = dose: 200.0 mg/kg/injection, schedule: Q01DX009 (ip), vehicle: saline with Tween-80
[12] = dose: 400.0 mg/kg/injection, schedule: Q01DX009 (ip), vehicle: saline with Tween-80
[13] = dose: 100.0 mg/kg/injection, schedule: Q01DX001 (ip), vehicle: saline
[14] = dose: 200.0 mg/kg/injection, schedule: Q01DX001 (ip), vehicle: saline
[15] = dose: 400.0 mg/kg/injection, schedule: Q01DX001 (ip), vehicle: saline

Measured: T/C

c1ccc(-c2nc3ccccc3o2)cc1
inactive: [1] 92 % of control | [2] 92 % of control | [3] 97 % of control | [4] 95 % of control | [5] 92 % of control | [6] 103 % of control

O=C(Nc1ccc(F)cc1)OCCOc1ccc([N+](=O)[O-])cc1
inactive: [1] 96 % of control | [3] 107 % of control | [5] 93 % of control

COC(=O)c1ccc[n+](C)c1
inactive: dose: 100.0 mg/kg/injection, schedule: Q04DX002 (ip), vehicle: saline 104 % of control | dose: 200.0 mg/kg/injection, schedule: Q04DX002 (ip), vehicle: saline 101 % of control

NC(N)=N/N=C\c1ccc(OCc2ccccc2)cc1
inactive: dose: 15.0 mg/kg/injection, schedule: Q01DX Z (ip), vehicle: saline 96 % of control | dose: 15.0 mg/kg/injection, schedule: Q01DX Z (oral), vehicle: saline 91 % of control | dose: 30.0 mg/kg/injection, schedule: Q01DX Z (ip), vehicle: saline 102 % of control | dose: 30.0 mg/kg/injection, schedule: Q01DX Z (oral), vehicle: saline 94 % of control | dose: 60.0 mg/kg/injection, schedule: Q01DX Z (oral), vehicle: saline 90 % of control | dose: 120.0 mg/kg/injection, schedule: Q01DX010 (oral), vehicle: saline 102 % of control | dose: 120.0 mg/kg/injection, schedule: Q01DX Z (oral), vehicle: saline 89 % of control | dose: 240.0 mg/kg/injection, schedule: Q01DX010 (oral), vehicle: saline 102 % of control | dose: 400.0 mg/kg/injection, schedule: Q01DX010 (oral), vehicle: saline 91 % of control

CC(=O)NC(c1ccccc1)C(NC(=O)c1ccccc1)c1ccccc1 (stereo not drawn)
inactive: [7] 92 % of control | [8] 94 % of control | [9] 89 % of control

CCN1C(=O)C2C3C=CC(C3)C2C1=O (stereo not drawn)
inactive: dose: 25.0 mg/kg/injection, schedule: Q04DX003 (ip), vehicle: saline with Tween-80 97 % of control | dose: 50.0 mg/kg/injection, schedule: Q04DX003 (ip), vehicle: saline with Tween-80 104 % of control

CCOc1ccc(OCC)c(NC(=O)Nc2cc(Cl)ccc2OC)c1
inactive: [7] 95 % of control | [10] 111 % of control and 90 % of control | dose: 100.0 mg/kg/injection, schedule: Q04DX002 (ip), vehicle: saline with Tween-80 98 % of control and 91 % of control | dose: 100.0 mg/kg/injection, schedule: Q04DX003 (ip), vehicle: saline with Tween-80 96 % of control | [8] 88 % of control | [11] 101 % of control and 92 % of control | dose: 200.0 mg/kg/injection, schedule: Q04DX002 (ip), vehicle: saline with Tween-80 94 % of control and 103 % of control | dose: 200.0 mg/kg/injection, schedule: Q04DX003 (ip), vehicle: saline with Tween-80 94 % of control | [9] 87 % of control | [12] 89 % of control | dose: 400.0 mg/kg/injection, schedule: Q04DX002 (ip), vehicle: saline with Tween-80 91 % of control and 92 % of control | dose: 400.0 mg/kg/injection, schedule: Q04DX003 (ip), vehicle: saline with Tween-80 91 % of control

NC(=O)c1ccnn1C1OC(CO)C(O)C1O (stereo not drawn)
inactive: dose: 50.0 mg/kg/injection, schedule: Q01DX005 (ip), vehicle: water 102 % of control | dose: 100.0 mg/kg/injection, schedule: Q01DX005 (ip), vehicle: water 102 % of control | dose: 200.0 mg/kg/injection, schedule: Q01DX005 (ip), vehicle: water 105 % of control

CC(=O)Nc1ccccc1SC(C)=O
inactive: dose: 100.0 mg/kg/injection, schedule: Q04DX003 (ip), vehicle: other 88 % of control

COC(=O)CCC(C)C1CCC2C3C(O)CC4CC(OC(C)=O)CCC4(C)C3CC(O)C12C (stereo not drawn)
inactive: dose: 50.0 mg/kg/injection, schedule: Q01DX009 (ip), vehicle: carboxymethylcellulose (CMC) 102 % of control and 103 % of control | dose: 50.0 mg/kg/injection, schedule: Q04DX003 (ip), vehicle: carboxymethylcellulose (CMC) 95 % of control | dose: 100.0 mg/kg/injection, schedule: Q01DX009 (ip), vehicle: carboxymethylcellulose (CMC) 95 % of control and 98 % of control | dose: 100.0 mg/kg/injection, schedule: Q04DX002 (ip), vehicle: carboxymethylcellulose (CMC) 96 % of control and 101 % of control | dose: 100.0 mg/kg/injection, schedule: Q04DX003 (ip), vehicle: carboxymethylcellulose (CMC) 95 % of control | dose: 200.0 mg/kg/injection, schedule: Q01DX009 (ip), vehicle: carboxymethylcellulose (CMC) 88 % of control and 92 % of control | dose: 200.0 mg/kg/injection, schedule: Q04DX002 (ip), vehicle: carboxymethylcellulose (CMC) 96 % of control and 91 % of control | dose: 200.0 mg/kg/injection, schedule: Q04DX003 (ip), vehicle: carboxymethylcellulose (CMC) 88 % of control | dose: 400.0 mg/kg/injection, schedule: Q04DX002 (ip), vehicle: carboxymethylcellulose (CMC) 86 % of control and 91 % of control

O=Cc1cc(=O)[nH]c(=O)[nH]1
inactive: dose: 50.0 mg/kg/injection, schedule: Q01DX001 (ip), vehicle: saline 109 % of control | [13] 109 % of control | [14] 105 % of control | [15] 97 % of control

[N-]=[N+]=Nc1ccc2cc3ccccc3nc2c1
inactive: dose: 100.0 mg/kg/injection, schedule: Q04DX003 (ip), vehicle: acetone 89 % of control | dose: 200.0 mg/kg/injection, schedule: Q04DX003 (ip), vehicle: acetone 95 % of control | dose: 400.0 mg/kg/injection, schedule: Q04DX003 (ip), vehicle: acetone 87 % of control

Cn1c(N)c(C=O)c(=O)n(C)c1=O
inactive: dose: 12.5 mg/kg/injection, schedule: Q04DX003 (ip), vehicle: Klucel (hydroxypropylcellulose) (HPC) 95 % of control | dose: 25.0 mg/kg/injection, schedule: Q04DX003 (ip), vehicle: Klucel (hydroxypropylcellulose) (HPC) 105 % of control | dose: 50.0 mg/kg/injection, schedule: Q04DX003 (ip), vehicle: Klucel (hydroxypropylcellulose) (HPC) 96 % of control

CC(=O)OCC(OC(C)=O)C(OC(C)=O)C(Cn1c(=O)cc(C)c2ccc(C)c(C)c21)OC(C)=O (stereo not drawn)
inactive: [13] 88 % of control | [14] 93 % of control | [15] 88 % of control

CCCCSP(=S)(SCCCC)SCCCC
inactive: dose: 100.0 mg/kg/injection, schedule: Q01DX001 (ip), vehicle: Klucel (hydroxypropylcellulose) (HPC) 94 % of control | [10] 105 % of control | dose: 200.0 mg/kg/injection, schedule: Q01DX001 (ip), vehicle: Klucel (hydroxypropylcellulose) (HPC) 94 % of control | [11] 105 % of control | dose: 400.0 mg/kg/injection, schedule: Q01DX001 (ip), vehicle: Klucel (hydroxypropylcellulose) (HPC) 97 % of control | [12] 102 % of control

CC(=O)Nc1nc(Cl)c2ncn(C3OC(COCc4ccccc4)C(OCc4ccccc4)C3OCc3ccccc3)c2n1 (stereo not drawn)
inactive: [2] 103 % of control | [4] 103 % of control | [6] 104 % of control

CN1CCC(OC(c2ccccc2)c2ccccc2)CC1
inactive: dose: 20.0 mg/kg/injection, schedule: Q01DX009 (ip), vehicle: saline 107 % of control | dose: 20.0 mg/kg/injection, schedule: Q04DX003 (ip), vehicle: saline 108 % of control | dose: 40.0 mg/kg/injection, schedule: Q01DX009 (ip), vehicle: saline 113 % of control | dose: 40.0 mg/kg/injection, schedule: Q04DX003 (ip), vehicle: saline 105 % of control | dose: 80.0 mg/kg/injection, schedule: Q04DX003 (ip), vehicle: saline 95 % of control

CCCCN(CCCCS(=O)(=O)O)c1ccc(N=Nc2cc(Cl)ccc2Cl)cc1
inactive: [2] 94 % of control | [4] 105 % of control

CCN(CC)C(=Nc1ccc(NC(=O)c2ccc(C(=O)Nc3ccc(N=C(c4ccccc4)N(CC)CC)cc3)cc2)cc1)c1ccccc1
inactive: dose: 15.0 mg/kg/injection, schedule: Q01DX Z (ip), vehicle: carboxymethylcellulose (CMC) 92 % of control | dose: 30.0 mg/kg/injection, schedule: Q01DX Z (ip), vehicle: carboxymethylcellulose (CMC) 93 % of control | dose: 60.0 mg/kg/injection, schedule: Q01DX Z (ip), vehicle: carboxymethylcellulose (CMC) 98 % of control | dose: 120.0 mg/kg/injection, schedule: Q01DX Z (ip), vehicle: carboxymethylcellulose (CMC) 114 % of control

— PubChem BioAssay AID248 (DTP/NCI, 2004)
